According to the NIST ThermoML archive (doi:10.1016/j.jct.2014.05.015):
Numbers after ± are expanded uncertainties.

Experiments:
[1] = mn = molality of the nth substance listed, in mol/kg; details: 100 kPa, Liquid; for speed of sound: Frequency=3 MHz, Sing-around technique in a fixed-path interferometer; for mass density: Vibrating tube method
[2] = 100 kPa, Liquid

SMILES | speed of sound ([1]; 293.15 K, m1 = 0.1) [m/s] | speed of sound ([1]; 293.15 K, m1 = 0.2) [m/s] | speed of sound ([1]; 293.15 K, m1 = 0.3) [m/s] | mass density ([1]; 293.15 K, m1 = 0.1) [kg/m3] | mass density ([1]; 293.15 K, m1 = 0.2) [kg/m3] | mass density ([1]; 293.15 K, m1 = 0.3) [kg/m3] | speed of sound ([1]; 298.15 K, m1 = 0.1) [m/s] | speed of sound ([1]; 298.15 K, m1 = 0.2) [m/s] | speed of sound ([1]; 298.15 K, m1 = 0.3) [m/s] | mass density ([1]; 298.15 K, m1 = 0.1) [kg/m3] | mass density ([1]; 298.15 K, m1 = 0.2) [kg/m3] | mass density ([1]; 298.15 K, m1 = 0.3) [kg/m3] | speed of sound ([1]; 303.15 K, m1 = 0.1) [m/s] | speed of sound ([1]; 303.15 K, m1 = 0.2) [m/s] | speed of sound ([1]; 303.15 K, m1 = 0.3) [m/s] | mass density ([1]; 303.15 K, m1 = 0.1) [kg/m3] | mass density ([1]; 303.15 K, m1 = 0.3) [kg/m3] | speed of sound ([1]; 308.15 K, m1 = 0.1) [m/s] | speed of sound ([1]; 308.15 K, m1 = 0.2) [m/s] | speed of sound ([1]; 308.15 K, m1 = 0.3) [m/s] | further results
O=C[C@H](O)[C@@H](O)[C@H](O)[C@H](O)CO [D-glucose] + O | 1489.2 ± 1.6 | 1496 ± 1.6 | 1502.5 ± 1.6 | 1005.07 ± 0.26 | 1012.08 ± 0.27 | 1018.81 ± 0.27 | 1502.9 ± 1.6 | 1509.4 ± 1.6 | 1515.8 ± 1.6 | 1003.87 ± 0.26 | 1010.89 ± 0.27 | 1017.52 ± 0.27 | 1514.8 ± 1.6 | 1521.2 ± 1.6 | 1527.3 ± 1.6 | 1002.44 ± 0.26 | 1016.01 ± 0.27 | 1525.3 ± 1.6 | 1531.2 ± 1.6 | 1537.2 ± 1.6 | mass density ([1]; 308.15 K, m1 = 0.1): 1000.79 ± 0.26 kg/m3; mass density ([1]; 308.15 K, m1 = 0.3): 1014.29 ± 0.27 kg/m3; speed of sound ([1]; 313.15 K, m1 = 0.1): 1534.1 ± 1.6 m/s; speed of sound ([1]; 313.15 K, m1 = 0.2): 1539.8 ± 1.6 m/s; speed of sound ([1]; 313.15 K, m1 = 0.3): 1545.7 ± 1.6 m/s; mass density ([1]; 313.15 K, m1 = 0.1): 998.945 ± 0.26 kg/m3; mass density ([1]; 313.15 K, m1 = 0.2): 1005.86 ± 0.26 kg/m3; mass density ([1]; 313.15 K, m1 = 0.3): 1012.36 ± 0.27 kg/m3
OC[C@H]1O[C@@](CO)(O[C@H]2O[C@H](CO)[C@@H](O)[C@H](O)[C@H]2O)[C@@H](O)[C@@H]1O [D-sucrose] + O | 1492.3 ± 1.3 | 1502.4 ± 1.3 | 1512.9 ± 1.3 | 1011.49 ± 0.14 | 1024.67 ± 0.14 | 1037.84 ± 0.14 | 1505.9 ± 1.3 | 1515.7 ± 1.3 | 1525.7 ± 1.3 | 1010.26 ± 0.14 | 1023.37 ± 0.14 | 1036.47 ± 0.14 | 1517.8 ± 1.3 | 1527 ± 1.3 | 1536.8 ± 1.3 | 1008.81 ± 0.14 | 1034.89 ± 0.14 | 1528.1 ± 1.3 | 1536.9 ± 1.3 | 1546.3 ± 1.3 | mass density ([1]; 303.15 K, m1 = 0.2): 1021.85 ± 0.14 kg/m3; mass density ([1]; 308.15 K, m1 = 0.1): 1007.14 ± 0.13 kg/m3; mass density ([1]; 308.15 K, m1 = 0.2): 1020.13 ± 0.14 kg/m3; mass density ([1]; 308.15 K, m1 = 0.3): 1033.11 ± 0.14 kg/m3; speed of sound ([1]; 313.15 K, m1 = 0.1): 1536.7 ± 1.3 m/s; speed of sound ([1]; 313.15 K, m1 = 0.2): 1545.4 ± 1.3 m/s; speed of sound ([1]; 313.15 K, m1 = 0.3): 1554.2 ± 1.4 m/s; mass density ([1]; 313.15 K, m1 = 0.1): 1005.28 ± 0.13 kg/m3; mass density ([1]; 313.15 K, m1 = 0.2): 1018.22 ± 0.14 kg/m3; mass density ([1]; 313.15 K, m1 = 0.3): 1031.16 ± 0.14 kg/m3
O [water] | – | – | – | – | – | – | – | – | – | – | – | – | – | – | – | – | – | – | – | – | mass density ([2]; 308.15 K, Vibrating tube method): 994.061 ± 0.26 kg/m3; speed of sound ([2]; 313.15 K, Frequency=3 MHz, Sing-around technique in a fixed-path interferometer): 1528.8 ± 1.6 m/s
